Measured values reported in patent publication US8513232B2, “Substituted spirocyclic piperidine derivatives as histamine-3 (H3) receptor ligands” (Cephalon, Inc., priority 2008, dated 2013).

How the values were obtained:
human H3 receptor = molecular target: T1, human H3 receptor (Homo sapiens, UniProt Q9Y5N1); experiment: Human H3 radioligand binding ([3H]-N-alpha-methylhistamine, SPA); conditions: Human H3 binding, Table B, Examples 136-362; read-out: hum H3 binding Ki
T1 construct: expressed in transfected cells
T1 sequence (Q9Y5N1 whole entry): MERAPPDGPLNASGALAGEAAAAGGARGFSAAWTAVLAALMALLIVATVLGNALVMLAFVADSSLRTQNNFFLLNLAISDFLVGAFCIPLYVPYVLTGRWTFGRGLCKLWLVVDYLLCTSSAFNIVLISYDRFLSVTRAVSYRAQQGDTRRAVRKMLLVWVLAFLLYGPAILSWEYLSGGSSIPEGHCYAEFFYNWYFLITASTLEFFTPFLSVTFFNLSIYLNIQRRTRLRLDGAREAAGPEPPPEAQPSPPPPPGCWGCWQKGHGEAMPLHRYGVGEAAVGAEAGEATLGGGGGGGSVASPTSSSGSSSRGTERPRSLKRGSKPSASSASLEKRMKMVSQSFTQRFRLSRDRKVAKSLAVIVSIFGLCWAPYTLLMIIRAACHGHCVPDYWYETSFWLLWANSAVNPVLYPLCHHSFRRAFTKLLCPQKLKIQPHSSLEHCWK
Outline: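 SPA competition binding on membranes from CHO cells stably expressing human H3 receptor (10 μg protein/well) with ~1 nM [3H]-N-alpha-methylhistamine and compound at 0.01 nM-30 μM. Incubation 4 h at room temperature in 50 mM Tris-HCl pH 7.4, 5 mM MgCl2, 0.1% BSA; non-specific binding defined with 10 μM clobenpropit.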

[1] = molecular target: T2, rat histamine H3 receptor (Rattus norvegicus, UniProt Q9QYN8); experiment: Rat H3 radioligand binding ([3H]-N-alpha-methylhistamine, SPA); conditions: Rat H3 binding, Table B, Examples 136-362; read-out: rat H3 binding Ki
T2 construct: encoding the entire 445-amino-acid rat histamine H3 receptor; expressed in transfected cells; membrane preparation
T2 sequence (Q9QYN8 whole entry): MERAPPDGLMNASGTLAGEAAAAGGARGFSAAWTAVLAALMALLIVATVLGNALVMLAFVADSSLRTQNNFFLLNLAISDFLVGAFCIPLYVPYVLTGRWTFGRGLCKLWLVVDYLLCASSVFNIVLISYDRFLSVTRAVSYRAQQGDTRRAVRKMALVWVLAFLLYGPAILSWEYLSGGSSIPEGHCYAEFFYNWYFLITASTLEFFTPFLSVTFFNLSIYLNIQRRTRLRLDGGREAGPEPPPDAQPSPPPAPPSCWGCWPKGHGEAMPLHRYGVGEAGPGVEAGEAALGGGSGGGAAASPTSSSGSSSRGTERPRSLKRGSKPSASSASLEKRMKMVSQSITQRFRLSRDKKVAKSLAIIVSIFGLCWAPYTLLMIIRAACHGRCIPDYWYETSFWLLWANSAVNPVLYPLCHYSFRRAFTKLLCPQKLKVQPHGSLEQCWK
Outline: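 Membranes from CHO-A3 cells stably expressing full-length rat H3 receptor (10 μg protein/well) incubated 4 h at room temperature, protected from light, with ~1 nM [3H]-N-alpha-methylhistamine and compound (0.01 nM-30 μM) in 50 mM Tris HCl pH 7.4, 5 mM MgCl2, 0.1% BSA. Binding read by SPA; 10 μM clobenpropit defined non-specific binding.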

SMILES	Ki (human H3 receptor) [nM]	Ki [1] [nM]	melting point [°C]
CS(=O)(=O)c1ccccc1C(=O)Nc1ccc2c(c1)COC1(CCN(C3CCC3)CC1)O2 [Example 216]	200 to 1000	< 200	143 to 145
CNC(=O)c1c(F)cc(-c2ccc3c(c2)CCC2(CCN(C4CCC4)CC2)O3)cc1F [Example 226]	< 200	< 200	110 to 112
Cn1cc(C(=O)Nc2ccc3c(c2)COC2(CCN(C4CCC4)CC2)O3)cn1 [Example 227]	< 200	200 to 1000	227 to 228
O=c1cccnn1-c1ccc2c(c1)COC1(CCN(C3CCC3)CC1)O2 [Example 228]	200 to 1000	200 to 1000	173 to 174
O=C1N(c2ccccc2)CCN1c1ccc2c(c1)CCC1(CCN(C3CCC3)CC1)O2 [Example 229]	< 200	< 200	182 to 185
COC1CCN(C(=O)c2ccc(-c3ccc4c(c3)CCC3(CCN(C5CCC5)CC3)O4)cc2)CC1 [Example 230]	< 200	< 200	66.8 to 67.5
Cc1cc(-c2ccc3c(c2)COC2(CCN(C4CCC4)CC2)O3)ccc1C(=O)NCCO [Example 231]	< 200	< 200	168.5 to 169.9
CNC(=O)c1ccc(-c2ccc3c(c2)CCC2(CCN(C4CCC4)CC2)O3)cc1Cl [Example 232]	< 200	< 200	144.2
COCCNC(=O)c1ccc(-c2ccc3c(c2)CCC2(CCN(C4CCC4)CC2)O3)cc1C [Example 233]	< 200	< 200	59.8 to 60.9
Cc1ccc(C#N)c(Nc2ccc3c(c2)COC2(CCN(C4CCC4)CC2)O3)n1 [Example 236]	< 200	< 200	56 to 58
CNC(=O)c1ccc(-c2ccc3c(c2)CCC2(CCN(C4CCC4)CC2)O3)cc1C [Example 237]	< 200	< 200	94.7 to 95.6
Cc1cc(-c2ccc3c(c2)CCC2(CCN(C4CCC4)CC2)O3)ccc1C(=O)NCCO [Example 238]	< 200	< 200	78.5 to 79.8
O=C(c1ccc(-c2ccc3c(c2)CCC2(CCN(C4CCC4)CC2)O3)cc1F)N1CCC(O)CC1 [Example 240]	< 200	< 200	102.8 to 104.6
c1ccc(Oc2ccc3c(c2)CCC2(CCN(C4CCC4)CC2)O3)nc1 [Example 241]	< 200	< 200	232 to 234
O=C1N(c2ccc(C(F)(F)F)nc2)CCN1c1ccc2c(c1)COC1(CCN(C3CCC3)CC1)O2 [Example 242]	< 200	< 200	222 to 224
Cc1ncoc1C(=O)Nc1ccc2c(c1)CCC1(CCN(C3CCC3)CC1)O2 [Example 243]	< 200	< 200	169 to 171
CN(C)C(=O)c1ccc(N2CCN(c3ccc4c(c3)COC3(CCN(C5CCC5)CC3)O4)C2=O)cc1 [Example 244]	< 200	< 200	243 to 245
O=C(Nc1cccc(F)c1)Nc1ccc2c(c1)COC1(CCN(C3CCC3)CC1)O2 [Example 245]	< 200	< 200	227 to 228
CNC(=O)c1ccc(-c2ccc3c(c2)CCC2(CCN(C4CCC4)CC2)O3)cc1C#N [Example 246]	< 200	< 200	80 to 82
c1cc(CNc2ccc3c(c2)COC2(CCN(C4CCC4)CC2)O3)ccn1 [Example 247]	< 200	< 200	45 to 48
O=C(Nc1ccc(F)cc1)Nc1ccc2c(c1)COC1(CCN(C3CCC3)CC1)O2 [Example 248]	< 200	< 200	237 to 238
O=C(Nc1ccc2c(c1)CCC1(CCN(C3CCC3)CC1)O2)c1cc(-c2ccccc2)ncn1 [Example 249]	< 200	< 200	153 to 155
CC(=O)N(Cc1ccncc1)c1ccc2c(c1)COC1(CCN(C3CCC3)CC1)O2 [Example 250]	< 200	< 200	63 to 65
COC1CCN(C(=O)c2ccc(-c3ccc4c(c3)CCC3(CCN(C5CCC5)CC3)O4)cn2)CC1 [Example 251]	< 200	< 200	150 to 152
CO[C@H]1CCN(C(=O)c2ccc(-c3ccc4c(c3)CCC3(CCN(C5CCC5)CC3)O4)cn2)C1 [Example 252]	< 200	< 200	249 to 251
CC(=O)N(c1ccc2c(c1)COC1(CCN(C3CCC3)CC1)O2)c1ccccn1 [Example 253]	< 200	< 200	53 to 55

The next lines start with the values.

Ki (human H3 receptor) [nM]	Ki [1] [nM]	melting point [°C]	SMILES
< 200	< 200	195 to 197	O=C1N(c2ccccc2)CCN1c1ccc2c(c1)COC1(CCN(C3CCC3)CC1)O2 [Example 207]
< 200	200 to 1000	188 to 189	CCOC(=O)c1ccc(NC(=O)Nc2ccc3c(c2)COC2(CCN(C4CCC4)CC2)O3)cc1 [Example 208]
< 200	< 200	218 to 219	COCCNC(=O)c1ccc(-c2ccc3c(c2)CCC2(CCN(C4CCC4)CC2)O3)cn1 [Example 209]
< 200	< 200	208 to 210	O=C1N(c2ccncc2)CCN1c1ccc2c(c1)CCC1(CCN(C3CCC3)CC1)O2 [Example 210]
< 200	< 200	70.2 to 71	CO[C@H]1CCN(C(=O)c2ccc(-c3ccc4c(c3)CCC3(CCN(C5CCC5)CC3)O4)cc2)C1 [Example 211]
< 200	< 200	82 to 83.3	O=C(c1ccc(-c2ccc3c(c2)CCC2(CCN(C4CCC4)CC2)O3)cc1)N1CCC[C@H](O)C1 [Example 212]
< 200	< 200	114 to 116	O=C(c1ccc(Nc2ccc3c(c2)COC2(CCN(C4CCC4)CC2)O3)cc1)N1CC[C@@H](O)C1 [Example 215]
< 200	< 200	190 to 192	COCCNC(=O)c1ccc(-c2ccc3c(c2)CCC2(CCN(C4CCC4)CC2)O3)cc1F [Example 217]
< 200	< 200	201 to 203	CNC(=O)c1cnc(-c2ccc3c(c2)CCC2(CCN(C4CCC4)CC2)O3)s1 [Example 218]
< 200	< 200	212.6 to 214.2	CNC(=O)c1c(F)cc(-c2ccc3c(c2)COC2(CCN(C4CCC4)CC2)O3)cc1F [Example 220]
< 200	< 200	192 to 193	O=C(Nc1ccc2c(c1)COC1(CCN(C3CCC3)CC1)O2)c1ccncc1Cl [Example 221]
< 200	< 200	105.2 to 106.9	O=C(c1ccc(-c2ccc3c(c2)COC2(CCN(C4CCC4)CC2)O3)cc1F)N1CCC(O)CC1 [Example 222]
< 200	< 200	237 to 239	N#Cc1ccc(Oc2ccc3c(c2)CCC2(CCN(C4CCC4)CC2)O3)cc1 [Example 223]
< 200	< 200	186 to 188	N#Cc1ccc(C(=O)Nc2ccc3c(c2)CCC2(CCN(C4CCC4)CC2)O3)cc1 [Example 224]
< 200	< 200	276 to 277	CNC(=O)c1ccc(-c2ccc3c(c2)COC2(CCN(C4CCC4)CC2)O3)cc1Cl [Example 225]
